Results: patent US11752115B2, “PPAR-alpha agonist treatment of neuropsychiatric disorders” (THE BOARD OF TRUSTEES OF THE UNIVERSITY OF ILLINOIS, priority 2017, dated 2023)
Where two headings read alike, the source gives them in different places.

What was measured:
SI mice [1] = test: Elevated plus maze; assay type: in vivo; settings: for prevention of the anxiolytic effect of PEA, vs. PEA 10 mg/kg (FIG. 3D): PEA 10 mg/kg i.p. 1 h before test; for time spent in the open arms (increase vs vehicle-treated SI mice): […] before test
Experimental: Elevated plus maze. Elevated plus maze tests were performed as previously (28). Mice chose between entering open or closed arms that extend from a central platform. An arm entry was scored when four legs were within the arm. Behavior was recorded for 5 min. The time spent and the number of open arm entries were used as index of anxiety-like behavior.

[2] = test system: allopregnanolone (Allo) levels; test: Brain neurosteroid measurements (GC-MS): Allo; assay type: in vivo, mice; settings: for Allo content in the olfactory bulb vs. PEA-treated mice (block of PEA effect): PEA 10 mg/kg i.p. 1 h before sacrifice
Experimental: (§1) Brain neurosteroid measurements. Extraction, derivatization and quantification of unconjugated neurosteroids was described previously (32). Steroids were extracted and then purified and separated by high-performance liquid chromatography (HPLC) after addition of deuterium-labeled internal standards (25). The aqueous phase (2 ml) containing sulfated neurosteroids underwent a solvolysis. After derivatization, gas chromatography-mass spectrometry analysis in the standard electron impact mode as previously reported (24, 25).

SI mice [3] = test: Locomotor activity (Example 1); assay type: in vivo; settings: PEA 5, 10, 20 mg/kg i.p., G7 10 mg/kg i.p., G6 3 mg/kg i.p., FIN 50 mg/kg s.c.
Experimental: Locomotor activity. […] Horizontal sensors beam interruptions measured horizontal activity for a total of 10 min.

[4] = test system: cannabinoid receptor type 1 (CB1); settings: direct activation of CB1 (Vallée et al., 2014); cited from earlier work
TNF-α = settings: depressed patients, responders [82]; cited from earlier work
[5] = test system: early and late adolescent SI mice; settings: for time after which aggression rebounded (duration of anti-aggressive effect): early and late adolescent SI mice; for EC50 dose, reduction of aggression: i.p., 60 min before test
Experimental: Resident-Intruder Test. To test aggression, a male intruder mouse of the same strain as the resident mouse, was placed in a resident home cage (24 cm×17 cm×12 cm) and resident-intruder interactions were videotaped for 10 min. Aggressive behavior of SI mice was characterized by an initial pattern of exploratory activity around the intruder, followed by rearing and tail rattle, accompanied within a few seconds by wrestling and/or a violent biting attacks. The total number of wrestling and attacks during the 10 min observation period was measured as previously described (Pinna et al., 2003, 2005), 60 min after drug administration. For every drug studied, SI mice were first exposed to three behavioral sessions, and then the average of basal aggression level for every single SI mouse was calculated; 2 days later, aggression levels following treatment were tested. Treated animals showing a reduction of the number of attacks less than 30% vs. the respective basal control values were considered as “low- to non-responders.”
Statistical Analyses. Results are presented as means±SEMs unless otherwise indicated. Student's t-test, one-way ANOVA and two-way ANOVA repeated measures followed by Bonferroni post hoc test were performed to analyze experimental data; significance was set at p<0.05. EC50 values were calculated from dose-response curves analyzed by the “quantal dose-response: probits test” using the computer program of Tallarida and Murray equipped with a statistical package (Tallarida and Murray, 1987). Statistical comparisons among the different EC50s were performed with the “cohort package software.” (available at cohort.com).

[6] = test system: early and late adolescent SI mice; test: Locomotor activity (Example 2); settings: all doses tested, i.p., 60 min before test
PPD patients = settings: intravenous infusions, vs only 9% of placebo-treated; cited from earlier work
[7] = Contextual fear conditioning, extinction and extinction retention; assay type: in vivo, mice; settings: GH mice; 5 mg/kg i.p.
Experimental: (§2) Contextual fear conditioning. Contextual fear conditioning was performed as previously (25).
(§3) Conditioning trial. Mice were placed in the chamber and exposed for 8 min to a conditioned stimulus and an electric foot-shock (unconditioned stimulus).
(§4) Reactivation. 24 h after conditioning, mice were re-exposed for 5 min to the context for retrieval/reactivation and treated immediately after reactivation.
(§5) Extinction and extinction retention. 24 h after reactivation, mice were re-introduced for 5 min in the chamber once daily for 5 days and freezing time was an index of contextual fear responses. After an interval of 8 days, mice were re-exposed to the chamber to determine extinction retention (25).

SI mice [8] = test: as above; assay type: in vivo; settings: PPAR-α KO mice; 5 mg/kg i.p.
Experimental: as §2, §3, §4, §5

SI mice [9] = test: Forced swim test (FST); assay type: in vivo
Experimental: (§6) Forced swim test and tail suspension test. The forced swim test (FST) or a tail suspension test (TST) was performed as previously (30, 31). FST sessions were video-recorded for 6 min and the last 4 min were analyzed (30). TST duration was 6 min. Immobility time was an index of depressive-like behavior.

SI mice [10] = test: Tail suspension test (TST); assay type: in vivo
Experimental: as §6

Pregnenolone (PE) = test: Brain neurosteroid measurements (GC-MS): pregnenolone; assay type: in vivo; settings: SI mice, 1 h
Experimental: as §1

[11] = test system: Progesterone (Prog) levels; test: Brain neurosteroid measurements (GC-MS): progesterone; assay type: in vivo; settings: SI mice, 1 h
Experimental: as §1

[12] = test system: 5α-dihydroprogesterone (5α-DHP); test: Brain neurosteroid measurements (GC-MS): 5α-DHP; assay type: in vivo; settings: SI mice, 1 h
Experimental: as §1

[13] = test system: Allo sulfate (Allo-S) and other sulfated neurosteroids; test: Brain sulfated neurosteroid measurements (GC-MS); assay type: in vivo; settings: SI mice; for Allo-S, hippocampus (increase): 60 minutes before sacrifice
Experimental: as §1

[14] = SI mice, 10 mg/kg i.p., 1 h before test
[15] = PPAR-α KO SI mice, 10 mg/kg i.p., 60 minutes before test

CCC(=O)NC[C@H](Cc1ccc(OCCc2nc(-c3ccccc3)oc2C)cc1)N/C(C)=C\C(=O)c1ccc(C(F)(F)F)cc1 [G6, GW6471]
prevention of the anxiolytic effect of PEA, vs. PEA 10 mg/kg (FIG. 3D) (SI mice [1]; SI mice, 3 mg/kg i.p. […] before test): −78% | Allo content in the olfactory bulb vs. PEA-treated mice (block of PEA effect) ([2]; SI mice, 3 mg/kg i.p. […] before sacrifice): −48% | sedation / effect on locomotor activity (SI mice [3]): do not induce sedation

CCCCCc1cc(O)c2c(c1)OC(C)(C)[C@@H]1CCC(C)=C[C@@H]21 [THC, 19-tetrahydrocannabinol]
increase of the synthesis of pregnenolone [4]: 30 fold

CC(C)OC(=O)C(C)(C)Oc1ccc(C(=O)c2ccc(Cl)cc2)cc1 [fenofibrate, Fenofibrate]
time spent in the open arms (increase vs vehicle-treated SI mice) (SI mice [1]; SI mice, 7.5 mg/kg s.c.): +88% | time spent in the open arms (increase vs vehicle-treated SI mice) (SI mice [1]; SI mice, 30 mg/kg s.c.): +442% | time spent in the open arms (increase vs vehicle-treated SI mice) (SI mice [1]; SI mice, 120 mg/kg s.c.): +552% | sedation / effect on locomotor activity (SI mice [3]): do not induce sedation

CN(C)CCC[C@@]1(c2ccc(F)cc2)OCc2cc(C#N)ccc21 [escitalopram]
lower expression of TNF-α after successful treatment (TNF-α): 30%

CNCC[C@H](Oc1ccc(C(F)(F)F)cc1)c1ccccc1 [S-FLX, S-fluoxetine]
reduction in the number of attacks vs. basal value ([5]; late SI mice, 0.75 mg/kg i.p.): −52% | time after which aggression rebounded (duration of anti-aggressive effect) ([5]; single dose 0.375 mg/kg): 1 days | time after which aggression rebounded (duration of anti-aggressive effect) ([5]; single dose 0.75 mg/kg and […]): 3 days | exploratory / locomotor activity [6]: did not reduce

CC(C)(C)NC(=O)[C@H]1CC[C@H]2[C@@H]3CC[C@H]4NC(=O)C=C[C@]4(C)[C@H]3CC[C@]12C [FIN, Finasteride]
prevention of the anxiolytic effect of PEA, vs. PEA 10 mg/kg (FIG. 3D) (SI mice [1]; SI mice, 50 mg/kg s.c. 2.5 h before test): −68% | Allo content in the olfactory bulb vs. PEA-treated mice (block of PEA effect) ([2]; SI mice, 50 mg/kg s.c. 2.5 h before sacrifice): −60% | sedation / effect on locomotor activity (SI mice [3]): do not induce sedation

CC(C)(Sc1ccc(CCN(CCCCC2CCCCC2)C(=O)NC2CCCCC2)cc1)C(=O)O [G7, GW7647]
number of entries in the open arms (change vs vehicle-treated SI mice) (SI mice [1]; [14]): +247% | time spent in the open arms (change vs vehicle-treated SI mice) (SI mice [1]; [14]): +506% | Allo levels, olfactory bulb (increase vs vehicle-treated SI mice) ([2]; SI mice, 10 mg/kg i.p., 1 h): +89% | sedation / effect on locomotor activity (SI mice [3]): do not induce sedation

CC(=O)[C@H]1CC[C@H]2[C@@H]3CC[C@H]4C[C@H](O)CC[C@]4(C)[C@H]3CC[C@]12C [allopregnanolone]
patients with rapid and long lasting remission of depressive symptoms (PPD patients): 70%

CCCCCCCCCCCCCCCC(=O)NCCO [PEA, N-Palmitoylethanolamine]
contextual fear responses in GH mice [7]: failed to affect contextual fear responses | contextual fear responses in PPAR-α KO mice (SI mice [8]): failed to affect contextual fear responses | anxiolytic effect in GH mice (elevated plus maze) (SI mice [1]; GH mice, 5-10 mg/kg i.p.): had no effect | number of entries in the open arms (vs vehicle) (SI mice [1]; [15]): +6% | time spent in the open arms (vs vehicle) (SI mice [1]; [15]): −1% | time of immobility in the FST in GH-control animals (SI mice [9]; GH-control mice, 10 mg/kg): lack of effect | time of immobility in the FST vs vehicle-treated mice (SI mice [9]; PPAR-α KO mice, 10 mg/kg i.p.): +5% | time of immobility in the TST in GH-control animals (SI mice [10]; GH-control mice, 10 mg/kg): lack of effect | time of immobility in the TST vs vehicle-treated mice (SI mice [10]; PPAR-α KO mice, 10 mg/kg i.p.): +12% | Allo concentrations, olfactory bulb of GH mice ([2]; GH mice, 20 mg/kg i.p., 60 minutes before sacrifice): does not modify | Allo levels, olfactory bulb of PPAR-α KO mice ([2]; SI PPAR-α KO mice, 10 mg/kg i.p., 1 h before sacrifice): failed to affect | Allo levels in the serum (peripheral levels) ([2]; SI mice, 10 mg/kg i.p., 1 h before sacrifice): failed to change | Allo levels, striatum ([2]; SI mice, 5, 10 and 20 mg/kg i.p., 1 h): failed to change | Pregnenolone (PE), olfactory bulb (increase) (Pregnenolone (PE); 5 mg/kg i.p.): +50% | Pregnenolone (PE), olfactory bulb (increase) (Pregnenolone (PE); 10 mg/kg i.p.): +69% | Progesterone (Prog) levels, striatum (increase) ([11]; 10 mg/kg i.p.): +356% | Progesterone (Prog) levels, amygdala (increase) ([11]; 20 mg/kg i.p.): +223% | Progesterone (Prog) levels, hippocampus (increase) ([11]; 20 mg/kg i.p.): +3128% | Progesterone (Prog) levels, striatum (increase) ([11]; 20 mg/kg i.p.): +594% | 5α-dihydroprogesterone (5α-DHP), hippocampus (increase) ([12]; 10 mg/kg i.p.): +64% | 5α-dihydroprogesterone (5α-DHP), hippocampus (increase) ([12]; 20 mg/kg i.p.): +87% | Allo-S, hippocampus (increase) ([13]; 10 mg/kg i.p.): +100% | Allo-S, hippocampus (increase) ([13]; 20 mg/kg i.p.): +104% | other sulfated neurosteroid levels (PE sulfate, PA sulfate, DHEA sulfate) ([13]; olfactory bulb and hippocampus, 5, 10 and 20 mg/kg i.p.): did not affect | sedation / effect on locomotor activity (SI mice [3]): do not induce sedation | reduction of the number of attacks vs. basal value ([5]; early SI mice, 10 mg/kg i.p.): −57% | reduction of the number of attacks vs. basal value ([5]; early SI mice, 15 mg/kg i.p.): −75% | reduction of the number of attacks vs. basal value ([5]; early SI mice, 20 mg/kg i.p.): −86% | EC50 dose, reduction of aggression ([5]; early adolescent SI mice (PND 21)): 8 mg/kg | reduction of the number of attacks vs. basal value ([5]; late SI mice, 10 mg/kg i.p.): −81% | reduction of the number of attacks vs. basal value ([5]; late SI mice, 15 mg/kg i.p.): −84% | reduction of the number of attacks vs. basal value ([5]; late SI mice, 20 mg/kg i.p.): −91% | EC50 dose, reduction of aggression ([5]; late adolescent SI mice (PND 45)): 6.5 mg/kg | duration of anti-aggressive effect ([5]; single dose 10 mg/kg and 15 mg/kg, late SI adolescent mice): less than 3 days | time after which the effect was extinguished ([5]; single dose 20 mg/kg, late SI mice): 5 days | duration of anti-aggressive effect (persisted) ([5]; single dose 20 mg/kg, late adolescent SI mice): 3 days | time after which aggressive behavior was reinstated ([5]; single dose 10, 15, and 20 mg/kg, early SI mice): 3 days | time after which aggressive behavior was reinstated ([5]; single dose 10 and 15 mg/kg, late SI mice): 3 days
